Data reported in patent publication US20040014047A1, “Antisense modulation of LIM domain kinase 1 expression” (Isis Pharmaceuticals Inc., priority 2002, published 2004).
Strand notation (5' to 3'): a small letter for the sugar, then the base; units joined by * are phosphorothioate-linked, units joined directly phosphodiester-linked; [ ] holds rarer units or linkages, { } end groups; capitals alone tell only the bases. e = 2'-O-(2-methoxyethyl) (MOE); [5mC] = 5-methylcytosine; d = 2'-deoxy (DNA)

Test system: human LIM domain kinase 1 mRNA
Experiment: Antisense inhibition of human LIM domain kinase 1 mRNA levels, quantitative real-time PCR, A549 cells (screen)
Type: cell-based
Conditions: for % INHIB (inhibition of human LIM domain kinase 1 mRNA levels): quantitative real-time PCR, averages from two experiments, screening concentration not given (50 nM to 300 nM used herein); for inhibition of human LIM domain kinase 1 expression (text summary of Table 1): real-time PCR, bound stated
Description: When cells reached 70% confluency, they were treated with oligonucleotide. […] Cells were harvested 16-24 hours after oligonucleotide treatment.
Vacuum was applied for 1 minute.
PCR reagents were obtained from Invitrogen Corporation, (Carlsbad, Calif.).
Total RNA is quantified using RiboGreenTM RNA quantification reagent from Molecular Probes.
Probes and primers to human LIM domain kinase 1 were designed to hybridize to a human LIM domain kinase 1 sequence, using published sequence information (GenBank accession number D26309.1, incorporated herein as SEQ ID NO:4). For human LIM domain kinase 1 the PCR primers were: forward primer: […] (SEQ ID NO: 5) reverse primer: […] (SEQ ID NO: 6) and the PCR probe was: FAM-[…]-TAMRA (SEQ ID NO: 7) where FAM is the fluorescent dye and TAMRA is the quencher dye.
All cytidine residues are 5-methylcytidines. […] Data are averages from two experiments in which A549 cells were treated with the oligonucleotides of the present invention. […] If present, “N.D.” indicates “no data”.

| Substance | % INHIB (inhibition of human LIM domain kinase 1 mRNA levels) | inhibition of human LIM domain kinase 1 expression (text summary of Table 1) |
| --- | --- | --- |
| 206167 (eA*eT*eA*e[5mC]*eG*dT*dT*d[5mC]*dT*dT*d[5mC]*d[5mC]*d[5mC]*dT*d[5mC]*e[5mC]*eA*eG*eG*eT; antisense) [compound 206167] | 85% | – |
| atgctgcagctcctcctggg (eA*eT*eG*e[5mC]*eT*dG*d[5mC]*dA*dG*d[5mC]*dT*d[5mC]*d[5mC]*dT*d[5mC]*e[5mC]*eT*eG*eG*eG; antisense) [ISIS 206232] | – | at least 65% |
| gcagtgcccgctgcaagagc (eG*e[5mC]*eA*eG*eT*dG*d[5mC]*d[5mC]*d[5mC]*dG*d[5mC]*dT*dG*d[5mC]*dA*eA*eG*eA*eG*e[5mC]; antisense) [ISIS 206231] | – | at least 65% |
| ggaattcttcacatctgggc (eG*eG*eA*eA*eT*dT*d[5mC]*dT*dT*d[5mC]*dA*d[5mC]*dA*dT*d[5mC]*eT*eG*eG*eG*e[5mC]; antisense) [ISIS 206182] | – | at least 65% |
| 206238 (antisense eG*e[5mC]*eA*eT*eG*dA*dA*dG*dG*d[5mC]*dA*d[5mC]*dT*dA*d[5mC]*e[5mC]*eT*e[5mC]*e[5mC]*e[5mC]) [compound 206238] | 53% | – |
| aggtaggccatccctgatgc (eA*eG*eG*eT*eA*dG*dG*d[5mC]*d[5mC]*dA*dT*d[5mC]*d[5mC]*d[5mC]*dT*eG*eA*eT*eG*e[5mC]; antisense) [ISIS 206201] | – | at least 65% |
| 206206 (antisense e[5mC]*eG*e[5mC]*e[5mC]*eG*dG*dT*dA*dG*dG*dT*d[5mC]*dT*d[5mC]*d[5mC]*e[5mC]*eA*eG*eA*eA) [compound 206206] | 28% | – |
| gctgctgcagccgtatgaaa (eG*e[5mC]*eT*eG*e[5mC]*dT*dG*d[5mC]*dA*dG*d[5mC]*d[5mC]*dG*dT*dA*eT*eG*eA*eA*eA; antisense) [ISIS 206224] | – | at least 65% |
| gcatcgcatgaccttcacct (eG*e[5mC]*eA*eT*e[5mC]*dG*d[5mC]*dA*dT*dG*dA*d[5mC]*d[5mC]*dT*dT*e[5mC]*eA*e[5mC]*e[5mC]*eT; antisense) [ISIS 206197] | – | at least 65% |
| 206184 (antisense eA*eT*eT*eT*e[5mC]*d[5mC]*dA*dA*dG*dA*dT*d[5mC]*d[5mC]*dG*dG*eT*e[5mC]*eT*e[5mC]*e[5mC]) [compound 206184] | 74% | – |
| 206233 (antisense eG*eG*eT*e[5mC]*e[5mC]*dT*dT*dG*d[5mC]*dG*d[5mC]*dT*dG*dG*dG*eA*eG*eG*e[5mC]*e[5mC]) [compound 206233] | 80% | – |
| 206207 (antisense eG*eT*eG*eG*e[5mC]*d[5mC]*d[5mC]*dT*dG*dG*d[5mC]*dT*d[5mC]*dA*dG*eT*e[5mC]*eG*eG*eG) [compound 206207] | 80% | – |
| 206195 (antisense eT*e[5mC]*eA*e[5mC]*eG*dG*dT*dG*dT*dG*dT*d[5mC]*dA*d[5mC]*d[5mC]*eT*eT*eG*eA*eT) [compound 206195] | 73% | – |
| 206165 (e[5mC]*e[5mC]*e[5mC]*eT*e[5mC]*d[5mC]*dA*dG*dG*dT*dG*d[5mC]*dA*dA*d[5mC]*eA*eA*eA*eG*eT) [compound 206165] | 22% | – |
| aaaggatggcctcttctcgg (eA*eA*eA*eG*eG*dA*dT*dG*dG*d[5mC]*d[5mC]*dT*d[5mC]*dT*dT*e[5mC]*eT*e[5mC]*eG*eG; antisense) [ISIS 206205] | – | at least 65% |
| 206208 (antisense e[5mC]*e[5mC]*eA*e[5mC]*e[5mC]*dT*d[5mC]*d[5mC]*d[5mC]*dG*d[5mC]*dG*dG*dA*dG*eG*eA*eA*eT*e[5mC]) [compound 206208] | 79% | – |
| 206162 (e[5mC]*eT*eG*e[5mC]*eT*dG*d[5mC]*dA*dG*d[5mC]*d[5mC]*dG*dT*dA*dT*eG*eA*eA*eA*eA; antisense) [compound 206162] | 74% | – |
| 206166 (eT*eT*e[5mC]*eT*eT*d[5mC]*d[5mC]*d[5mC]*dT*d[5mC]*d[5mC]*dA*dG*dG*dT*eG*e[5mC]*eA*eA*e[5mC]; antisense) [compound 206166] | 70% | – |
| 206213 (antisense e[5mC]*e[5mC]*e[5mC]*eT*eG*dA*dG*dG*d[5mC]*dT*dT*dG*dG*dT*dA*e[5mC]*e[5mC]*eT*eG*e[5mC]) [compound 206213] | 14% | – |
| 206201 (antisense eA*eG*eG*eT*eA*dG*dG*d[5mC]*d[5mC]*dA*dT*d[5mC]*d[5mC]*d[5mC]*dT*eG*eA*eT*eG*e[5mC]) [compound 206201] | 74% | – |

| Substance | % INHIB (inhibition of human LIM domain kinase 1 mRNA levels) | inhibition of human LIM domain kinase 1 expression (text summary of Table 1) |
| --- | --- | --- |
| 206235 (antisense eT*eA*eG*e[5mC]*eT*dG*dG*dG*dA*dT*dT*dA*d[5mC]*dA*dG*eT*eA*e[5mC]*eT*eA) [compound 206235] | 53% | – |
| 206217 (antisense eA*eA*eG*e[5mC]*eT*dT*d[5mC]*dA*d[5mC]*dA*dG*dT*dT*dT*dT*eA*eA*eT*eA*e[5mC]) [compound 206217] | 68% | – |
| 206234 (antisense e[5mC]*eA*eT*eT*e[5mC]*dT*dT*dG*dT*dT*d[5mC]*dT*dG*dG*dG*eA*eA*eG*eG*eT) [compound 206234] | 61% | – |
| 206177 (antisense eA*eG*e[5mC]*eT*eT*dG*dG*dA*dG*dT*dG*d[5mC]*dT*d[5mC]*d[5mC]*eA*e[5mC]*e[5mC]*eA*eG) [compound 206177] | 86% | – |
| 206171 (eA*eG*eG*eG*e[5mC]*d[5mC]*dT*dG*dG*dA*dG*dG*dT*dA*d[5mC]*eT*eG*eG*e[5mC]*e[5mC]; antisense) [compound 206171] | 83% | – |
| 206164 (e[5mC]*eA*eG*eG*eT*dG*d[5mC]*dA*dA*d[5mC]*dA*dA*dA*dG*dT*eA*eG*e[5mC]*eG*eT; antisense) [compound 206164] | 75% | – |
| 206196 (antisense eA*e[5mC]*e[5mC]*eT*eT*d[5mC]*dA*d[5mC]*d[5mC]*dT*d[5mC]*d[5mC]*dT*dT*dG*eA*eG*eG*eA*eA) [compound 206196] | 47% | – |
| ctcagacccttgagttactg (e[5mC]*eT*e[5mC]*eA*eG*dA*d[5mC]*d[5mC]*d[5mC]*dT*dT*dG*dA*dG*dT*eT*eA*e[5mC]*eT*eG; antisense) [ISIS 206227] | – | at least 65% |
| agcttggagtgctccaccag (eA*eG*e[5mC]*eT*eT*dG*dG*dA*dG*dT*dG*d[5mC]*dT*d[5mC]*d[5mC]*eA*e[5mC]*e[5mC]*eA*eG; antisense) [ISIS 206177] | – | at least 65% |
| 206180 (antisense eA*e[5mC]*eA*eT*e[5mC]*dT*dG*dG*dG*d[5mC]*dT*d[5mC]*dA*dT*dG*e[5mC]*eA*eG*e[5mC]*e[5mC]) [compound 206180] | 77% | – |
| 206176 (antisense e[5mC]*eG*e[5mC]*e[5mC]*eA*dT*dA*dG*d[5mC]*dG*dG*dG*d[5mC]*d[5mC]*d[5mC]*eA*eG*eT*eA*eG) [compound 206176] | 87% | – |
| gtctcggtggatgatgttca (eG*eT*e[5mC]*eT*e[5mC]*dG*dG*dT*dG*dG*dA*dT*dG*dA*dT*eG*eT*eT*e[5mC]*eA; antisense) [ISIS 206202] | – | at least 65% |
| 206174 (antisense eG*eG*e[5mC]*e[5mC]*e[5mC]*dA*dG*dT*dA*dG*dT*d[5mC]*d[5mC]*dT*dT*e[5mC]*eT*eT*eG*e[5mC]) [compound 206174] | 87% | – |
| ggcccagtagtccttcttgc (eG*eG*e[5mC]*e[5mC]*e[5mC]*dA*dG*dT*dA*dG*dT*d[5mC]*d[5mC]*dT*dT*e[5mC]*eT*eT*eG*e[5mC]; antisense) [ISIS 206174] | – | at least 65% |
| 206186 (antisense eG*eG*e[5mC]*eG*eT*dG*d[5mC]*d[5mC]*dA*dT*dT*dG*dA*dT*dT*eT*e[5mC]*e[5mC]*eA*eA) [compound 206186] | 72% | – |
| 206199 (antisense eT*eG*eT*e[5mC]*e[5mC]*dA*dT*dG*d[5mC]*dT*d[5mC]*dT*dT*dG*dA*eT*eG*eA*eT*eG) [compound 206199] | 68% | – |
| ggagtgaaagcacccagctg (eG*eG*eA*eG*eT*dG*dA*dA*dA*dG*d[5mC]*dA*d[5mC]*d[5mC]*d[5mC]*eA*eG*e[5mC]*eT*eG; antisense) [ISIS 206225] | – | at least 65% |
| 206168 (eT*e[5mC]*eT*e[5mC]*e[5mC]*d[5mC]*dA*dT*dA*d[5mC]*dG*dT*dT*d[5mC]*dT*eT*e[5mC]*e[5mC]*e[5mC]*eT; antisense) [compound 206168] | 36% | – |
| 206215 (antisense eG*e[5mC]*eA*eG*e[5mC]*dT*dG*d[5mC]*dT*dG*d[5mC]*dT*dG*d[5mC]*dA*eG*e[5mC]*e[5mC]*eG*eT) [compound 206215] | 75% | – |
